Measured values as given in ChEMBL document CHEMBL1201862, “PubChem BioAssay data set” (2004).
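Cultured in 96-well plates, cells were exposed to test compound for 48 hours across five concentrations. GI50 marks 50% less growth.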 The source made the active and inactive calls. Rule as the data show it: active = GI50 up to about 1.1 µM and inactive = higher.

Experiments:
Assay in all cases: inhibition of tumour cell growth, NCI panel, 48 h
MCF7 = system: MCF7
NCI-H460 = system: NCI-H460
M14 = system: M14
RPMI-8226 = system: RPMI-8226
K562 = system: K562
MDA-MB-435 = system: MDA-MB-435
SK-OV-3 = system: SK-OV-3
SN12C = system: SN12C
EKVX = system: EKVX
NCI-H522 = system: NCI-H522
HCT-116 = system: HCT-116
SW-620 = system: SW-620
LOX IMVI = system: LOX IMVI
HL-60 = system: HL-60
Hs-578T = system: Hs-578T
PC-3 = system: PC-3
SK-MEL-28 = system: SK-MEL-28
NCI/ADR-RES = system: NCI/ADR-RES
HCC 2998 = system: HCC 2998
HCT-15 = system: HCT-15

Structure (SMILES) | GI50 (MCF7) | GI50 (NCI-H460) | GI50 (M14) | GI50 (RPMI-8226) | GI50 (K562) | GI50 (MDA-MB-435) | GI50 (SK-OV-3) | GI50 (SN12C) | GI50 (EKVX) | GI50 (NCI-H522) | GI50 (HCT-116) | GI50 (SW-620) | GI50 (LOX IMVI) | GI50 (HL-60) | GI50 (Hs-578T) | GI50 (PC-3) | GI50 (SK-MEL-28) | GI50 (NCI/ADR-RES) | GI50 (HCC 2998) | GI50 (HCT-15) [µM]
O=C(O)CC1(C(=O)O)CCCCC1 | > 100 µM (inactive) | > 100 µM (inactive) | > 100 µM (inactive) | > 100 µM (inactive) | > 100 µM (inactive) | > 100 µM (inactive) | > 100 µM (inactive) | > 100 µM (inactive) | > 100 µM (inactive) | > 100 µM (inactive) | > 100 µM (inactive) | > 100 µM (inactive) | > 100 µM (inactive) | > 100 µM (inactive) | > 100 µM (inactive) | > 100 µM (inactive) | > 100 µM (inactive) | > 100 µM (inactive) | > 100 µM (inactive) | > 100
O=C(c1ccccc1)c1c(C(F)(F)F)[n+]([O-])c2cc(Cl)c(Cl)cc2[n+]1[O-] | 0.557 µM (active) | 1.15 µM (inactive) | 0.968 µM (active) | 0.373 µM (active) | 2.24 µM (inactive) | 1.41 µM (inactive) | 4.8 µM (inactive) | 0.658 µM (active) | 3.27 µM (inactive) | 0.557 µM (active) | 0.528 µM (active) | 0.619 µM (active) | 0.41 µM (active) | 0.789 µM (active) | 0.849 µM (active) | 1.18 µM (inactive) | 2.86 µM (inactive) | 2.21 µM (inactive) | 2.16 µM (inactive) | 0.535
COC(=O)C1Cc2cc3c(cc2C1=O)CCC3 (stereo not given) | > 100 µM (inactive) | > 100 µM (inactive) | > 100 µM (inactive) | > 100 µM (inactive) | 43 µM (inactive) | > 100 µM (inactive) | > 100 µM (inactive) | 90.6 µM (inactive) | > 100 µM (inactive) | > 100 µM (inactive) | > 100 µM (inactive) | > 100 µM (inactive) | > 100 µM (inactive) | > 100 µM (inactive) | > 100 µM (inactive) | > 100 µM (inactive) | > 100 µM (inactive) | > 100 µM (inactive) | > 100 µM (inactive) | > 100
CC(C)(C)OC(=O)NCC(O)CNC(=O)OC(C)(C)C | > 100 µM (inactive) | > 100 µM (inactive) | > 100 µM (inactive) | > 100 µM (inactive) | > 100 µM (inactive) | > 100 µM (inactive) | > 100 µM (inactive) | > 100 µM (inactive) | > 100 µM (inactive) | > 100 µM (inactive) | > 100 µM (inactive) | > 100 µM (inactive) | > 100 µM (inactive) | > 100 µM (inactive) | > 100 µM (inactive) | > 100 µM (inactive) | > 100 µM (inactive) | > 100 µM (inactive) | > 100 µM (inactive) | > 100
N#Cc1c(O)c(/C=N/c2ccc(Cl)cc2)c(=O)n2c1[nH]c1ccccc12 | > 100 µM (inactive) | > 100 µM (inactive) | > 100 µM (inactive) | > 100 µM (inactive) | > 100 µM (inactive) | > 100 µM (inactive) | > 100 µM (inactive) | > 100 µM (inactive) | > 100 µM (inactive) | > 100 µM (inactive) | > 100 µM (inactive) | > 100 µM (inactive) | > 100 µM (inactive) | > 100 µM (inactive) | > 100 µM (inactive) | > 100 µM (inactive) | > 100 µM (inactive) | > 100 µM (inactive) | > 100 µM (inactive) | 36.5
O=C(NC(N1CCN(c2cc3c(cc2F)c(=O)c(C(=O)O)cn3C2CC2)CC1)(C(F)(F)F)C(F)(F)F)c1ccccc1 | 29.8 µM (inactive) | 32.1 µM (inactive) | 47.4 µM (inactive) | 27.7 µM (inactive) | 39.4 µM (inactive) | 34.1 µM (inactive) | 34.1 µM (inactive) | 36.1 µM (inactive) | 35.6 µM (inactive) | 17.7 µM (inactive) | 34.1 µM (inactive) | 40.5 µM (inactive) | 33.9 µM (inactive) | 25.4 µM (inactive) | 40.9 µM (inactive) | 45.1 µM (inactive) | 55.8 µM (inactive) | 46 µM (inactive) | 23.8 µM (inactive) | 22.1
